Experiment [1] concerns the target T1, KIT (Homo sapiens, UniProt P10721).
T1 construct: made in house
As to the kind of experiment: Competition binding assay, KIT Kd. The note with it: competition binding. An outline of the steps: (§1)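 Phage-fused or HEK-293/DNA-tagged kinase + ligand-coated streptavidin beads + compound, 1 h RT with shaking. Wash, elute with free ligand 30 min RT, qPCR of eluted kinase. Kd: 11-point 3-fold series.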

For experiment [2], the target named is T2, PDGFRβ (Homo sapiens, UniProt P09619).
T2 construct: made in house
As to the kind of experiment: Competition binding assay, PDGFRβ Kd. The following applies: competition binding. The procedure, abridged: as §1

Experiment [3] deals with M-NFS-60 cells. As to the kind of experiment: M-NFS-60 cell proliferation assay (Alamar Blue). The experiment is classed as cell-based, mouse. The following applies: Mus musculus; M-NFS-60 cell proliferation; read-out: CSF1R M-NFS-60 CTB:IC50. The procedure, abridged:
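Mouse M-NFS-60 cells growing on 20 ng/mL M-CSF in RPMI/10% FBS were exposed to compounds (9 half-log concentrations, 0.5% DMSO) for 72 h at 37 °C. Viability read by Alamar Blue fluorescence (ex 560/em 590 nm, 3 h). IC50 = 50% proliferation inhibition versus control, mean of duplicates.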

Experiment [4] addresses kinase panel containing either 386 or 392 distinct kinases. As to the kind of experiment: Kinase selectivity score S10 from competition binding panel. The following applies: 10 μM, panel of 386 or 392 distinct kinases. An outline of the steps: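 Compounds at 10 μM competed against immobilised affinity ligands for T7 phage-fused or HEK-293-expressed DNA-tagged kinases, 1 h at room temperature; bound kinase eluted and quantified by qPCR. S10 = fraction of distinct non-mutant kinases with percent of DMSO control below 10.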

Experiment [5] has as its target CSF1R (Homo sapiens, UniProt P07333). As to the kind of experiment: Competition binding assay, CSF1R Kd. Details: made in house. The note with it: competition binding. An outline of the steps:
as §1

Chain of CSF1R (P07333 20-972): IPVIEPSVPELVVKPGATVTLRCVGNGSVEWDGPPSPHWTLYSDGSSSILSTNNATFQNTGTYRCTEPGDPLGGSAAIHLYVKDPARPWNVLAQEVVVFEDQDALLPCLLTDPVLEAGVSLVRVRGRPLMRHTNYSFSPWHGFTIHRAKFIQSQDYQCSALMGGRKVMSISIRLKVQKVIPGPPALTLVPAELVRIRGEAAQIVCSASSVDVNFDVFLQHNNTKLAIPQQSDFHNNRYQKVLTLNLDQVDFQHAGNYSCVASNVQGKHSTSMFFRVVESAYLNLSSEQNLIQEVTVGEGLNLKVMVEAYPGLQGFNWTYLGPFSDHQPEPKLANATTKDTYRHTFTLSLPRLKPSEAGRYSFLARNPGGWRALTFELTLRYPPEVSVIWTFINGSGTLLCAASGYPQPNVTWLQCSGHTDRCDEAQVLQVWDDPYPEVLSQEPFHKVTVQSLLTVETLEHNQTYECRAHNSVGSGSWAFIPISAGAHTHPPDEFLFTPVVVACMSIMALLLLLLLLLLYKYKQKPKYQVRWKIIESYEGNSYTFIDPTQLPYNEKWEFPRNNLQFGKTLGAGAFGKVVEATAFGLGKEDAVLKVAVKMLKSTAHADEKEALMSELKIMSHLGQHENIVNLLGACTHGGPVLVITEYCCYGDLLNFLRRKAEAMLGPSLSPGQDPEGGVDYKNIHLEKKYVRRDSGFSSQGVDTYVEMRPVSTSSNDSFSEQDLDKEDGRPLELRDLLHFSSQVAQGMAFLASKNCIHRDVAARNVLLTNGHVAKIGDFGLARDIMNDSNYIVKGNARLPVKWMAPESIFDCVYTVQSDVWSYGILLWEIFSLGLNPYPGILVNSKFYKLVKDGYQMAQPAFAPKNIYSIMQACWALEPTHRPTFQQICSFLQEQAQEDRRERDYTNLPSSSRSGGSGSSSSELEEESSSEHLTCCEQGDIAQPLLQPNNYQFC
T1 sequence (P10721 26-976): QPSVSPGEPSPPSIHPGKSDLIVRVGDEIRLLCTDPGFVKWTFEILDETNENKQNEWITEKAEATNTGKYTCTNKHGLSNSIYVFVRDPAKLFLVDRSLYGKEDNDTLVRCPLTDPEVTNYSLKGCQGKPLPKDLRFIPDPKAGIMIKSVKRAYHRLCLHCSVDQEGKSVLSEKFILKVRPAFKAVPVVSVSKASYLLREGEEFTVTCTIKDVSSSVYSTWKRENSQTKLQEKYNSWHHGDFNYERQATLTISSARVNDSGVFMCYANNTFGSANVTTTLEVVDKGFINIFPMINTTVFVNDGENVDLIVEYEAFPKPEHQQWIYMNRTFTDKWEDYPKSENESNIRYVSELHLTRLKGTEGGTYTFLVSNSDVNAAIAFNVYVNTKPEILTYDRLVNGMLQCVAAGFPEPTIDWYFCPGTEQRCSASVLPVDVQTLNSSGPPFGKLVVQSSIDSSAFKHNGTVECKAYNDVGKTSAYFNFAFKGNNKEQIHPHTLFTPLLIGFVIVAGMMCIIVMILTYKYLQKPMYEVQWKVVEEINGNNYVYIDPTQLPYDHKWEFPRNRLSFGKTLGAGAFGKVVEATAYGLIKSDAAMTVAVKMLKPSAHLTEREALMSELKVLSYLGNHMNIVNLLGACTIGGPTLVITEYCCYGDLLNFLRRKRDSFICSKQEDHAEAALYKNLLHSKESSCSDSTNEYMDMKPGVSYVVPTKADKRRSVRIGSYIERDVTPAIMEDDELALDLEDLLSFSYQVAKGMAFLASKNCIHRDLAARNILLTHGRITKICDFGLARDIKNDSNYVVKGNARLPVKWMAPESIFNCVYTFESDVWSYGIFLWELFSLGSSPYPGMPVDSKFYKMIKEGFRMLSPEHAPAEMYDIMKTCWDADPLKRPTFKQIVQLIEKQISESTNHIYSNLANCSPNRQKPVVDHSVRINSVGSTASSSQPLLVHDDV
T2 sequence (P09619 33-1106): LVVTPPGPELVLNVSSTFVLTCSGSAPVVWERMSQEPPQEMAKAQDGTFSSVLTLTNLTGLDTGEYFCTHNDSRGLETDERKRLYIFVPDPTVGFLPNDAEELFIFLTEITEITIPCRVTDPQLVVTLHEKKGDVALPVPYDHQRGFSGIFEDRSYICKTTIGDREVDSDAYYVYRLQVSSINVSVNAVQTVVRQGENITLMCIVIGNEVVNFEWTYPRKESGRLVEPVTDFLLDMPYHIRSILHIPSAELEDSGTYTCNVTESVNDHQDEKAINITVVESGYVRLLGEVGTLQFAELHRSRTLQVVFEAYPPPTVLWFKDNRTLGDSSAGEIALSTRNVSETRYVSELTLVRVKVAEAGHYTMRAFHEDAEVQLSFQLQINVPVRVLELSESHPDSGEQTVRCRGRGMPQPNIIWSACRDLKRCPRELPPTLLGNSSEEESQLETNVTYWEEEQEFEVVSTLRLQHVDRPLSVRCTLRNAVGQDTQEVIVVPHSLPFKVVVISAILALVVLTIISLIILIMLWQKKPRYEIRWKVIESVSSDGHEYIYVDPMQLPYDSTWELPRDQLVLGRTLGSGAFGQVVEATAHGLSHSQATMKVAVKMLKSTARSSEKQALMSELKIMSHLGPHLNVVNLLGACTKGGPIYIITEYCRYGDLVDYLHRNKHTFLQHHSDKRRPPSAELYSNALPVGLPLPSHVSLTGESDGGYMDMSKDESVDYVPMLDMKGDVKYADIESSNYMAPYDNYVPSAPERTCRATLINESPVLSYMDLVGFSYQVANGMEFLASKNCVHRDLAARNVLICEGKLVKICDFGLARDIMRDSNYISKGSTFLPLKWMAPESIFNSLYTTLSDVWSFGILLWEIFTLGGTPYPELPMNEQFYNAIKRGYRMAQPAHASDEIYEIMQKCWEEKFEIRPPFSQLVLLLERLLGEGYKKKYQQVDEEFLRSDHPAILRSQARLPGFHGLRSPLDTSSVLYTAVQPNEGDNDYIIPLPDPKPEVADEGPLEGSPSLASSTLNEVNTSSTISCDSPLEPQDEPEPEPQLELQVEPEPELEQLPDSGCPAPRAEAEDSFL

A word on the Kd: it is a measure of binding affinity in units of concentration. One may read the IC50 as the concentration at which inhibition is half-maximal. On to `O[C@@H]1CCCC[C@H]1Nc1nc2ccc(Cn3cnc4cc(F)c(F)cc43)cc2s1` [Example 128, (1R,2R)-2-((6-((5,6-difluoro-1H-benzo[d]imidazol-1-yl)methyl)benzo[d]thiazol-2-yl)amino)cyclohexanol], for which the results for the dissociation constant (Kd) in experiment [1], in experiment [2] and in experiment [5] were 100 to 500 nM, 50 to 500 nM and 5 to 20 nM, respectively. Besides, in experiment [3], the concentration for half-maximal inhibition (IC50) lay within 400 to 1500 nM. Further, the “Kinase specificity S(10)” value in experiment [4] is listed as “B (0.01<B≤0.02)”.

For the compound `O[C@@H]1CCCC[C@H]1Nc1nc2ccc(Cn3cnc4cc(F)ccc43)cc2s1` [Example 129, (1R,2R)-2-((6-((5-fluoro-1H-benzo[d]imidazol-1-yl)methyl)benzo[d]thiazol-2-yl)amino)cyclohexanol], the Kd is no more than 100 nM in experiment [1], no more than 50 nM in experiment [2] and no more than 5 nM in experiment [5]. Moreover, the IC50 in experiment [3] was in the range of 50 to 400 nM. In addition, the “Kinase specificity S(10)” value in experiment [4] is on record as “B (0.01<B≤0.02)”.

Turning to `O[C@@H]1CCCC[C@H]1Nc1nc2ccc(Cn3cnc4cc(C(F)(F)F)ccc43)cc2s1` [Example 130, (1R,2R)-2-((6-((5-(trifluoromethyl)-1H-benzo[d]imidazol-1-yl)methyl)benzo[d]thiazol-2-yl)amino)cyclohexanol], the dissociation constant Kd in experiment [1] is 100 to 500 nM; in experiment [2], no more than 50 nM; in experiment [5], 5 to 20 nM. In addition, the half-maximal inhibitory concentration (IC50) in experiment [3] was 50 to 400 nM. In experiment [4], the “Kinase specificity S(10)” value is “A (A≤0.01)”.

For `O[C@@H]1CCCC[C@H]1Nc1nc2ccc(Cc3cnc4cccnn34)cc2s1` [Example 131, (1R,2R)-2-((6-(imidazo[1,2-b]pyridazin-3-ylmethyl)benzo[d]thiazol-2-yl)amino)cyclohexanol], the dissociation constant (Kd) in experiment [1] is no more than 100 nM; in experiment [2], no more than 50 nM; in experiment [5], no more than 5 nM. For the same compound, in experiment [3], the IC50 was no more than 50 nM. Moreover, the “Kinase specificity S(10)” value in experiment [4] is “B (0.01<B≤0.02)”.

On to `O[C@@H]1CCCC[C@H]1Nc1nc2ccc(Cn3cnc4cc(F)cnc43)cc2o1` [Example 132, (1R,2R)-2-((6-((6-fluoro-3H-imidazo[4,5-b]pyridin-3-yl)methyl)benzo[d]oxazol-2-yl)amino)cyclohexanol], for which the dissociation constant Kd is no more than 100 nM in experiment [1], no more than 50 nM in experiment [2] and no more than 5 nM in experiment [5]. The IC50 in experiment [3] was 50 to 400 nM. In addition, the “Kinase specificity S(10)” value in experiment [4] is “C (C>0.02)”.

In the case of `OC[C@@H]1CCCC[C@H]1Nc1nc2ccc(Cn3cnc4cc(Br)cnc43)cc2s1` [Example 133, ((1R,2R)-2-((6-((6-bromo-3H-imidazo[4,5-b]pyridin-3-yl)methyl)benzo[d]thiazol-2-yl)amino)cyclohexyl)methanol], the Kd in experiment [1] is 100 to 500 nM; in experiment [2], no more than 50 nM; in experiment [5] it was 5 to 20 nM. In addition, the IC50 in experiment [3] lay in the range of 50 to 400 nM. The “Kinase specificity S(10)” value in experiment [4] is on record as “A (A≤0.01)”.

Regarding `Cn1nnnc1-c1cnc2c(c1)ncn2Cc1ccc2nc(N[C@@H]3CCCC[C@H]3O)sc2c1` [Example 134, (1R,2R)-2-((6-((6-(1-methyl-1H-tetrazol-5-yl)-3H-imidazo[4,5-b]pyridin-3-yl)methyl)benzo[d]thiazol-2-yl)amino)cyclohexanol], the dissociation constant (Kd) in experiment [1] was 100 to 500 nM; in experiment [2] it was no more than 50 nM; in experiment [5] it was 5 to 20 nM. Also, the IC50 in experiment [3] fell in the range of 50 to 400 nM. Moreover, the “Kinase specificity S(10)” value in experiment [4] is listed as “A (A≤0.01)”.

As to `OC[C@H]1CCCC[C@H]1Nc1nc2ccc(Cn3cnc4cc(Br)cnc43)cc2s1` [Example 136, ((1S,2R)-2-((6-((6-bromo-3H-imidazo[4,5-b]pyridin-3-yl)methyl)benzo[d]thiazol-2-yl)amino)cyclohexyl)methanol], the Kd in experiment [1] was no more than 100 nM; in experiment [2] it was no more than 50 nM; in experiment [5], 5 to 20 nM. Further, in experiment [3], the half-maximal inhibitory concentration (IC50) was in the range of 50 to 400 nM. For the same compound, the “Kinase specificity S(10)” value in experiment [4] was “B (0.01<B≤0.02)”.
